Where a SMILES comes first, the peptide text is derived from it.
How the values were obtained:
Format in all cases: in vivo, BALB/C mice
[1] = system: hemopoietic cells; assay: Proliferation of hemopoietic cells and tolerance of multiple cycles of Ara-C chemotherapy
Experimental: (§1) A number of assays were performed to show the effect of combining the hemopoiesis inhibitory factor and hemopoiesis growth factor on the proliferation of hemopoietic cells during chemotherapy.
(§2) Three groups of BALB/C mice were used in this study. Mice of the three groups were treated as follows (i.e., with Ara-C, the abbreviation of cytosine arabinoside, as the cytotoxic agent, AcSDKP as the hemopoiesis inhibitory factor, and GM-CSF as the hemopoiesis growth factor):
(§3) In each group, the animals were subjected to a sequence of three cycles of chemotherapy, i.e., Cycle I (Days 0-20), Cycle II (Days 21-37), and Cycle III (Days 38-56). Note that animals in each group were sacrificed on specific days for collection of blood samples, eliminating the artifact that may have been induced by intensive repetitive bleedings of the same animals.
(§4) Minipump implantations and excisions: The 200 μl capacity ALZET™ osmotic minipump Model 2001 (Alza Corporation, Palo Alto, Calif.) primed to deliver 1.0 μL/hour for 7 days was used for continuously administering the 100 ng/hour of AcSDKP in each cycle. More specifically, during each cycle, AcSDKP primed pumps were implanted s.c. prior to the first administration of Ara-C in the A.M. of day zero and excised in the A.M. of day 7. The first administration of Ara-C was in the A.M. of day zero and the last administration in the A.M. of day 6 (q.d., or once per day).
Treatment cycle: For the animals of Group 3, each cycle consists of a period in which Ara-C and AcSDKP were administered, a period in which the administered Ara-C and AcSDKP were purged, a period in which GM-CSF was administered, and, finally, a further recovery period. More specifically, after 7 consecutive days of Ara-C treatment during which time AcSDKP was administered by continuous s.c. infusion (see the preceding paragraph), a 2-day period followed so as to allow for purging of both AcSDKP and Ara-C. […]

[2] = system: white blood cells; assay: White blood cell counts in mice during three cycles of Ara-C chemotherapy
Experimental: as §1, §2, §3, §4
(§5) Treatment cycle: For the animals of Group 3, each cycle consists of a period in which Ara-C and AcSDKP were administered, a period in which the administered Ara-C and AcSDKP were purged, a period in which GM-CSF was administered, and, finally, a further recovery period. More specifically, after 7 consecutive days of Ara-C treatment during which time AcSDKP was administered by continuous s.c. infusion (see the preceding paragraph), a 2-day period followed so as to allow for purging of both AcSDKP and Ara-C. GM-CSF was then administered for 4 days (b.i.d., or twice per day), and the animals were permitted 4-8 more days at the end of the GM-CSF administration to recover before the initiation of the subsequent cycle (as in Cycles I and II) or before the collection of the last blood samples (as in Cycle III).
(§6) Blood sample collection: Blood samples (maximum attainable volume) for clinical pathology evaluations were collected from mice at euthanasia. The mice were food-fasted overnight prior to blood collection and samples were collected by puncture of the retro-orbital sinus after anesthetization by CO2 inhalation.
(§7) Analysis of blood samples: Hematology data were collected electronically and processed by the HUMMINGBIRD™ computer system (Laboratories Consulting, Inc., Madison, Wis.). Blood samples were processed and evaluated for the parameters specified (polymorphonuclear cell, platelet, and white blood cell counts in 10^3 cells/[…] as shown in Tables 2 and 3) using a Sysmex TOAE-2500 hematology analyzer (TOA Medical Electronics, Kobe, Japan).
(§8) See the right-hand column "percent change," i.e., (cell count from Group 2/cell count from Group 1)×100%, in Table 2. The data in Table 2 (as well as in Table 3) are log transformed to minimize the effect of outliers and the geometric means of the data are used for the analyses. The difference in the means between two test groups are compared for each of three different stages, i.e., chemotherapy (days 0-4, 21-25 and 38-42 in Cycles I, II and III, respectively), nadir (days 5-10, 26-31 and 43-48 in Cycles I, II and III, respectively), or recovery (days 11-20, 32-37 and 49-56 in Cycles I, II and III, respectively). Significant differences are marked by a large dot, which stands for P<0.003, a statistically significant p-value for data compared between two groups combined over the three cycles.

[3] = system: platelets; assay: Platelet counts in mice during three cycles of Ara-C chemotherapy
Experimental: as §1, §2, §3, §4, §5, §6, §7, §8

[4] = system: polymorphonuclear cells; assay: Polymorphonuclear cell counts in mice during three cycles of Ara-C chemotherapy
Experimental: as §1, §2, §3, §4, §5, §6, §7
as §8, with “The” for “See the right-hand column "percent change," i.e., (cell count from Group 2/cell count from Group 1)×100%, in Table 2. The”

[5] = Group 2 (Ara-C+GM-CSF) vs Group 1 (Ara-C), Cycle I, Chemotherapy (days 0-4)
[6] = Group 2 (Ara-C+GM-CSF) vs Group 1 (Ara-C), Cycle I, Nadir (days 5-10)
[7] = Group 2 (Ara-C+GM-CSF) vs Group 1 (Ara-C), Cycle I, Recovery (days 11-20)
[8] = Group 2 (Ara-C+GM-CSF) vs Group 1 (Ara-C), Cycle II, Chemotherapy (days 21-25)
[9] = Group 2 (Ara-C+GM-CSF) vs Group 1 (Ara-C), Cycle II, Nadir (days 26-31)
[10] = Group 2 (Ara-C+GM-CSF) vs Group 1 (Ara-C), Cycle II, Recovery (days 32-37)
[11] = Group 2 (Ara-C+GM-CSF) vs Group 1 (Ara-C), Cycle III, Chemotherapy (days 38-42)
[12] = Group 2 (Ara-C+GM-CSF) vs Group 1 (Ara-C), Cycle III, Nadir (days 43-48)
[13] = Group 2 (Ara-C+GM-CSF) vs Group 1 (Ara-C), Cycle III, Recovery (days 49-56)
[14] = Group 3 (Ara-C+AcSDKP+GM-CSF) vs Group 2 (Ara-C+GM-CSF), Cycle I, Chemotherapy (days 0-4)
[15] = Group 3 (Ara-C+AcSDKP+GM-CSF) vs Group 2 (Ara-C+GM-CSF), Cycle I, Nadir (days 5-10)
[16] = Group 3 (Ara-C+AcSDKP+GM-CSF) vs Group 2 (Ara-C+GM-CSF), Cycle I, Recovery (days 11-20), marked significant
[17] = Group 3 (Ara-C+AcSDKP+GM-CSF) vs Group 2 (Ara-C+GM-CSF), Cycle II, Chemotherapy (days 21-25)
[18] = Group 3 (Ara-C+AcSDKP+GM-CSF) vs Group 2 (Ara-C+GM-CSF), Cycle II, Nadir (days 26-31)
[19] = Group 3 (Ara-C+AcSDKP+GM-CSF) vs Group 2 (Ara-C+GM-CSF), Cycle II, Recovery (days 32-37), marked significant
[20] = Group 3 (Ara-C+AcSDKP+GM-CSF) vs Group 2 (Ara-C+GM-CSF), Cycle III, Chemotherapy (days 38-42)
[21] = Group 3 (Ara-C+AcSDKP+GM-CSF) vs Group 2 (Ara-C+GM-CSF), Cycle III, Nadir (days 43-48)
[22] = Group 3 (Ara-C+AcSDKP+GM-CSF) vs Group 2 (Ara-C+GM-CSF), Cycle III, Recovery (days 49-56), marked significant

GM-CSF: granulocyte/macrophage-colony stimulating factor, the hemopoiesis growth factor, procured from Immunix Research and Development Corp.
Ability of the animals to tolerate multiple cycles of chemotherapy ([1]; Group 2 (Ara-C+GM-CSF) vs Group 1 (Ara-C)): did not enhance | Percent change, white blood cell count [2, 5]: -9.1838% | Percent change, white blood cell count [2, 6]: 17.5916% | Percent change, white blood cell count [2, 7]: 5.3418% | Percent change, white blood cell count [2, 8]: 43.1551% | Percent change, white blood cell count [2, 9]: 40.2987% | Percent change, white blood cell count [2, 10]: -7.2022% | Percent change, white blood cell count [2, 11]: 7.717% | Percent change, white blood cell count [2, 12]: -9.5103% | Percent change, white blood cell count [2, 13]: -0.8913% | White blood cell counts, change in words ([2]; Group 2 (Ara-C+GM-CSF) vs Group 1 (Ara-C), recovery period of Cycles II and III): decreased | Percent change, platelet count [3, 5]: 30.5966% | Percent change, platelet count [3, 6]: 0.0332% | Percent change, platelet count ([3]; Group 2 (Ara-C+GM-CSF) vs Group 1 (Ara-C), Cycle I, Recovery (days 11-20), marked significant): 10.6804% | Percent change, platelet count [3, 8]: 0.5878% | Percent change, platelet count [3, 9]: 0.0259% | Percent change, platelet count ([3]; Group 2 (Ara-C+GM-CSF) vs Group 1 (Ara-C), Cycle II, Recovery (days 32-37), marked significant): 20.4577% | Percent change, platelet count [3, 11]: 15.5436% | Percent change, platelet count [3, 12]: 14.0708% | Percent change, platelet count ([3]; Group 2 (Ara-C+GM-CSF) vs Group 1 (Ara-C), Cycle III, Recovery (days 49-56), marked significant): 11.9135% | Platelet counts, change in words ([3]; Group 2 (Ara-C+GM-CSF) vs Group 1 (Ara-C), recovery periods, three cycles combined, p=0.0003): significantly increased | Percent change, polymorphonuclear cell count [4, 5]: -0.2001% | Percent change, polymorphonuclear cell count [4, 6]: 23.1962% | Percent change, polymorphonuclear cell count [4, 7]: 21.7299% | Percent change, polymorphonuclear cell count [4, 8]: 19.8969% | Percent change, polymorphonuclear cell count [4, 9]: 9.4827% | Percent change, polymorphonuclear cell count [4, 10]: -10.9401% | Percent change, polymorphonuclear cell count [4, 11]: 29.7855% | Percent change, polymorphonuclear cell count [4, 12]: 1.6526% | Percent change, polymorphonuclear cell count [4, 13]: -0.7213%

CC(=O)N[C@@H](CO)C(=O)N[C@@H](CC(=O)O)C(=O)N[C@@H](CCCCN)C(=O)N1CCC[C@H]1C(=O)O [AcSDKP, N-Acetyl-Ser-Asp-Lys-Pro] (Ac-SDKP-OH)
Blood cell levels, effect of AcSDKP present during chemotherapy ([1]; Group 3 (Ara-C+AcSDKP+GM-CSF) vs Group 2 (Ara-C+GM-CSF)): contributed to subsequent enhancement of blood cell levels by GM-CSF | Ability to tolerate multiple cycles of chemotherapy ([1]; combined use of AcSDKP and GM-CSF with Ara-C (Group 3)): allows multiple cycles of chemotherapy | Percent change, white blood cell count [2, 14]: -39.0687% | Percent change, white blood cell count [2, 15]: -47.8669% | Percent change, white blood cell count [2, 16]: 29.1779% | Percent change, white blood cell count [2, 17]: -57.7294% | Percent change, white blood cell count [2, 18]: -10.6607% | Percent change, white blood cell count [2, 19]: 44.2989% | Percent change, white blood cell count [2, 20]: 19.207% | Percent change, white blood cell count [2, 21]: -9.4556% | Percent change, white blood cell count [2, 22]: 50.2142% | White blood cell counts, change in words ([2]; Group 3 (Ara-C+AcSDKP+GM-CSF) vs Group 2 (Ara-C+GM-CSF), recovery periods, p=0.0001): significantly increased | Percent change, platelet count [3, 14]: -53.4439% | Percent change, platelet count ([3]; Group 3 (Ara-C+AcSDKP+GM-CSF) vs Group 2 (Ara-C+GM-CSF), Cycle I, Nadir (days 5-10), marked significant): 20.9005% | Percent change, platelet count ([3]; Group 3 (Ara-C+AcSDKP+GM-CSF) vs Group 2 (Ara-C+GM-CSF), Cycle I, Recovery (days 11-20)): 23.6811% | Percent change, platelet count [3, 17]: 29.203% | Percent change, platelet count ([3]; Group 3 (Ara-C+AcSDKP+GM-CSF) vs Group 2 (Ara-C+GM-CSF), Cycle II, Nadir (days 26-31), marked significant): 49.9274% | Percent change, platelet count ([3]; Group 3 (Ara-C+AcSDKP+GM-CSF) vs Group 2 (Ara-C+GM-CSF), Cycle II, Recovery (days 32-37)): 13.851% | Percent change, platelet count [3, 20]: 36.6101% | Percent change, platelet count ([3]; Group 3 (Ara-C+AcSDKP+GM-CSF) vs Group 2 (Ara-C+GM-CSF), Cycle III, Nadir (days 43-48), marked significant): 32.1586% | Percent change, platelet count ([3]; Group 3 (Ara-C+AcSDKP+GM-CSF) vs Group 2 (Ara-C+GM-CSF), Cycle III, Recovery (days 49-56)): -0.7018% | Platelet counts, change in words ([3]; Group 3 (Ara-C+AcSDKP+GM-CSF) vs Group 2 (Ara-C+GM-CSF), nadir periods, p=0.0006): significantly increased | Percent change, polymorphonuclear cell count [4, 14]: -66.466% | Percent change, polymorphonuclear cell count [4, 15]: -27.344% | Percent change, polymorphonuclear cell count [4, 16]: 52.314% | Percent change, polymorphonuclear cell count [4, 17]: -44.682% | Percent change, polymorphonuclear cell count [4, 18]: 130.128% | Percent change, polymorphonuclear cell count [4, 19]: 100.223% | Percent change, polymorphonuclear cell count [4, 20]: 37.246% | Percent change, polymorphonuclear cell count [4, 21]: 42.105% | Percent change, polymorphonuclear cell count [4, 22]: 95.829% | Polymorphonuclear cell counts, change in words ([4]; Group 3 (Ara-C+AcSDKP+GM-CSF) vs Group 2 (Ara-C+GM-CSF), recovery periods, p=<0.0001): significantly increased
